Data taken from patent US20100267954A1, “PROCESS FOR THE PURIFICATION OF PALIPERIDONE” (DIPHARMA FRANCIS S.r.l., priority 2009, published 2010).
Where a name gives a salt, the structure may show the parent alone.

Tests used:
[1] = solubility in water (descriptive statement); assay type: physicochemical; settings: crystalline solid
[2] = compared with Form II, hydrate form and solvate form; per EMEA document; cited from earlier work

| solubility in water [1] | SMILES | thermodynamic stability among crystalline forms [2] |
| --- | --- | --- |
| poorly soluble in water | Cc1nc2n(c(=O)c1CCN1CCC(c3noc4cc(F)ccc34)CC1)CCCC2O (stereo not drawn) [paliperidone hydrochloride, 3-[2-[4-(6-fluoro-1,2-benzoisoxazol-3-yl)-1-piperidinyl]ethyl-6,7,8,9-tetrahydro-9-hydroxy-2-methyl-4H-pyrido[1,2-a]-pyrimidin-4-one hydrochloride] |  |
| poorly soluble in water | Cc1nc2n(c(=O)c1CCN1CCC(c3noc4cc(F)ccc34)CC1)CCCC2O (racemic) [paliperidone Form I, (±)-3-[2-[4-(6-fluoro-1,2-benzoisoxazol-3-yl)-1-piperidinyl]ethyl-6,7,8,9-tetrahydro-9-hydroxy-2-methylpropanediol-4H-pyrido[1,2-a]pyrimidin-4-one] | most thermodynamically stable |
